Results published in patent publication US20190175467A1, “COMPOSITION FOR THE TREATMENT OF ACNE” (ROTTAPHARM LTD., priority 2015, published 2019).
Values after ≈ are worked out from the molar mass of the structure shown.

Columns and labels:
TNFalpha = assay: Anti-inflammatory activity: LPS-induced TNFalpha release in HaCat keratinocytes (ELISA); format: cell-based, human
Text: (§1) The aim of the test was the evaluation of the anti-inflammatory activity of Salix alba extract, 1,2-decanediol and their combination by means of the study of TNFalpha, IL1alpha, IL8 synthesis modulation in a biological experimental model (keratinocyte cell culture HaCat).
(§2) In order to stimulate the inflammatory process in our experimental model, lipopolysaccharides (LPS) were selected. LPS are pro-inflammatory mediators secreted by bacteria, e.g. by P. acnes.
(§3) 1,2-decanediol (SMAL) was emulsified with corn oil (37° C.) in mechanical agitation and addition of culture medium, starting from the following ratio: 0.05 g emulsified with 100 μl corn oil in a final volume of culture medium of 1 ml (37° C.).
(§4) Salix alba extract (WMAL) was direct diluted in culture medium, starting from the following ratio: 0.05 g in 1 ml (37° C.); subsequent dilutions in culture medium (37° C.). […]
(§5) At the end of the monitored experimental period, cytokine levels were measured by means of ELISA assay. […]
(§6) Commercial ELISA kits were used for the determination of cytokine quantity.
(§7) The quantitative determination uses a calibration curve made-up of standard known and growing concentrations of standard cytokine. […]
(§8) In order to compare the two different work sessions, the obtained data were normalized in a 0-100% scale, in which CTR− is 0 and CTR+ is 100%; all the other data were calculated in this interval.

IL8 = assay: Anti-inflammatory activity: LPS-induced IL8 release in HaCat keratinocytes (ELISA); format: cell-based, human
Text: as §1, §2, §3, §4, §5, §6, §7, §8

[1] = system: Propionibacterium acnes ATCC 11827; details: common knowledge; cited from earlier work
[2] = system: Propionibacterium acnes ATCC 11827; assay: Determination of MIC and MBC, P. acnes; format: cell-based; details: Cutibacterium acnes, ATCC11827; Propionibacterium acnes ATCC 11827, 2.6×10^4 cells per milliliter
Description: (§9) A series of test tubes was prepared containing the culture broth inoculated with the test micro-organism and the substance to be tested was introduced at decreasing scalar concentrations. […] The test tubes in which the microbial population developed were then determined by observing visually the turbidity that is indicative of growth. Test tubes in which the substance is present at a sufficient concentration to inhibit growth remain clear. When the nature itself of the sample prevents visual reading or if it is wished to determine whether the lack of development is due to a microbiostatic or microbicidal action, transfers are made to appropriate agar media for confirmation. The concentration of sample at which growth of the micro-organisms is inhibited is considered to be the Minimum Inhibitory Concentration (MIC), while that at which viable micro-organisms are no longer present is considered to be the Minimum Bactericidal Concentration (MBC) In a further set of experiments we tested the antibacterial activity of Salix alba extract and 1,2-decanediol, a substance which is known to show antibacterial activity against P. acnes, alone and in combination according to the above-described method. The microbial strain used was Propionibacterium acnes ATCC 11827 titrated at a concentration of 2.6×10^4 cells per milliliter of medium.

IL-6 = assay: Anti-inflammatory activity: LPS-induced IL-6 release in HaCat keratinocytes (ELISA), as headed in Table 3; format: cell-based, human; details: HaCat + LPS 10 ng/ml; CTR− is 0, CTR+ is 100%; WMAL 0.4%, SMAL 0.02%
IL1alpha = assay: Anti-inflammatory activity: LPS-induced IL1alpha release in HaCat keratinocytes (ELISA); format: cell-based, human
Text: as §1, §2, §3, §4, §5, §6, §7, §8

[3] = system: Staphylococcus aureus ATCC 25923; assay: Determination of MIC and MBC, Staphylococcus aureus; format: cell-based; details: for MBC: ATCC25923; for MIC: ATCC25923, read-out: MIC
Description: as §9, with “The” for “In a further set of experiments we tested the”, “these substances against Staphylococcus aureus acnes ATCC 25923” for “Salix alba extract”, “Staphylococcus epidermidis ATCC 12228 was tested” for “1,2-decanediol, a substance which is known to show antibacterial activity against P. acnes, alone and in combination”, “method.” for “method. The microbial strain used was Propionibacterium acnes ATCC 11827 titrated at a concentration of 2.6×10^4 cells per milliliter of medium.”

[4] = system: Staphylococcus epidermidis ATCC 12228; assay: Determination of MIC and MBC, Staphylococcus epidermidis; format: cell-based; details: for MBC: ATCC12228; for MIC: ATCC12228, read-out: MIC
Description: as §9, with “The” for “In a further set of experiments we tested the”, “these substances against Staphylococcus aureus acnes ATCC 25923” for “Salix alba extract”, “Staphylococcus epidermidis ATCC 12228 was tested” for “1,2-decanediol, a substance which is known to show antibacterial activity against P. acnes, alone and in combination”, “method.” for “method. The microbial strain used was Propionibacterium acnes ATCC 11827 titrated at a concentration of 2.6×10^4 cells per milliliter of medium.”

[5] = HaCat + LPS 10 ng/ml, CTR− is 0, CTR+ is 100%, WMAL 0.4%, SMAL 0.02%

CCCCCCCCC(O)CO (stereo not shown) [1,2-decanediol]
effect on LPS-induced release of TNFalpha (in words) (TNFalpha; HaCat + LPS): significantly reduce | TNF-ALPHA, normalized data 0-100% (TNFalpha; [5]): 18.45% | effect on LPS-induced release of IL8 (in words) (IL8; HaCat + LPS): significantly reduce | IL-8, normalized data 0-100% (IL8; [5]): 34.56% | antibacterial activity against P. acnes, as known (in words) [1]: effective | MBC [2]: 1250 µg/mL | MIC [2]: 620 µg/mL | IL-6, normalized data 0-100% (IL-6): 61.69% | effect on LPS-induced release of IL1alpha (in words) (IL1alpha): significantly reduce

C=C[C@@](C)(/C=C/c1ccc(O)cc1)CCC=C(C)C [Bakuchiol]
MBC [3]: 100 µg/mL (≈ 390 µM) | MIC [3]: 6.25 µg/mL (≈ 24.4 µM) | MBC [4]: 100 µg/mL (≈ 390 µM) | MIC [4]: 6.25 µg/mL (≈ 24.4 µM)

CCCCCCCCCCCC(=O)O [Lauric Acid, Lauric acid]
MBC [4]: 1000 µg/mL (≈ 4990 µM) | MIC [4]: 500 µg/mL (≈ 2500 µM)

Oc1ccc(C=Cc2cc(O)cc(O)c2)cc1 [Resveratrol]
MBC [3]: > 100000 µg/mL | MIC [3]: 1000 µg/mL (≈ 4380 µM) | MBC [4]: > 100000 µg/mL | MIC [4]: 250 µg/mL (≈ 1100 µM)

O=C(OOC(=O)c1ccccc1)c1ccccc1 [benzoyl peroxide]
antibacterial activity against P. acnes, as known (in words) [1]: strong antibacterial agent | MBC [2]: 480 µg/mL | MIC [2]: 480 µg/mL
